Assay results taken from the kinase profiling compilation of Christmann-Franck et al. (2016).

Legend:
Assay in all cases: KINOMEscan competition binding
Conditions in all cases: compound 10.0 µM
ACVR1B (human) = ACVR1B (human) (UniProt P36896)
ACVR2B (human) = ACVR2B (human) (UniProt Q13705)
ALK (human) = ALK (human) (UniProt Q9UM73)
CAMKK2 (human) = CAMKK2 (human) (UniProt Q96RR4)
CDK19 (human) = CDK19 (human) (UniProt Q9BWU1)
CDK3 (human) = CDK3 (human) (UniProt Q00526)
CHEK2 (human) = CHEK2 (human) (UniProt O96017)
Sequence of CHEK2 (human) (O96017 whole entry, looked up): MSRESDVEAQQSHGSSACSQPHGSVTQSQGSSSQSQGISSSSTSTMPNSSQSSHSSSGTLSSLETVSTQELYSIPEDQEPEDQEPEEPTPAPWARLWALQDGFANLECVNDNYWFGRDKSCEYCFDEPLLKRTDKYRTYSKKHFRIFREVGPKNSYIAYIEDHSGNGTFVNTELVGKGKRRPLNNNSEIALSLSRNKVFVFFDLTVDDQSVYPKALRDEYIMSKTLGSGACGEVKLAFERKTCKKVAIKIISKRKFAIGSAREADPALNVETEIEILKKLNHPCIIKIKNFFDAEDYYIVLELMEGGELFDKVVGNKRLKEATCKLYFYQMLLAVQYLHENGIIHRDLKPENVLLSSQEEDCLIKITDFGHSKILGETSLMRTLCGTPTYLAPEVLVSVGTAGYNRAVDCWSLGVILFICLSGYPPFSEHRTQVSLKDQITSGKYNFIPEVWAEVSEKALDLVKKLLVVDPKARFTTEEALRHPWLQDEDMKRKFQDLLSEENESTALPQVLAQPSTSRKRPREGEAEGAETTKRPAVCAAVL

CHUK (human) = CHUK (human) (UniProt O15111)
CLK2 (human) = CLK2 (human) (UniProt P49760)
EPHA2 (human) = EPHA2 (human) (UniProt P29317)
EPHA4 (human) = EPHA4 (human) (UniProt P54764)
FYN (human) = FYN (human) (UniProt P06241)
GSK3A (human) = GSK3A (human) (UniProt P49840)
IKBKE (human) = IKBKE (human) (UniProt Q14164)
KDR (human) = KDR (human) (UniProt P35968)
LTK (human) = LTK (human) (UniProt P29376)
MAP2K1 (human) = MAP2K1 (human) (UniProt Q02750)
MAP2K3 (human) = MAP2K3 (human) (UniProt P46734)
Sequence of MAP2K3 (human) (P46734 whole entry, looked up): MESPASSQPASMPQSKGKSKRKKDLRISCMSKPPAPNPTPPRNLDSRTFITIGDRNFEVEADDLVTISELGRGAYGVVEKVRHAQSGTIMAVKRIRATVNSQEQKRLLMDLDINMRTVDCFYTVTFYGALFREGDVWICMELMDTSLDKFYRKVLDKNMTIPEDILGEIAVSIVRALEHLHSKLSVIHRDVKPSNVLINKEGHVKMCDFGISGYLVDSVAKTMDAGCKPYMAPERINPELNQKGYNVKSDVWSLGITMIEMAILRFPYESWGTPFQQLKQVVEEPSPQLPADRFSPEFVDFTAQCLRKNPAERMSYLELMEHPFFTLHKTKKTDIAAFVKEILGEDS

MAP3K3 (human) = MAP3K3 (human) (UniProt Q99759)
MAP3K5 (human) = MAP3K5 (human) (UniProt Q99683)
Sequence of MAP3K5 (human) (Q99683 whole entry, looked up): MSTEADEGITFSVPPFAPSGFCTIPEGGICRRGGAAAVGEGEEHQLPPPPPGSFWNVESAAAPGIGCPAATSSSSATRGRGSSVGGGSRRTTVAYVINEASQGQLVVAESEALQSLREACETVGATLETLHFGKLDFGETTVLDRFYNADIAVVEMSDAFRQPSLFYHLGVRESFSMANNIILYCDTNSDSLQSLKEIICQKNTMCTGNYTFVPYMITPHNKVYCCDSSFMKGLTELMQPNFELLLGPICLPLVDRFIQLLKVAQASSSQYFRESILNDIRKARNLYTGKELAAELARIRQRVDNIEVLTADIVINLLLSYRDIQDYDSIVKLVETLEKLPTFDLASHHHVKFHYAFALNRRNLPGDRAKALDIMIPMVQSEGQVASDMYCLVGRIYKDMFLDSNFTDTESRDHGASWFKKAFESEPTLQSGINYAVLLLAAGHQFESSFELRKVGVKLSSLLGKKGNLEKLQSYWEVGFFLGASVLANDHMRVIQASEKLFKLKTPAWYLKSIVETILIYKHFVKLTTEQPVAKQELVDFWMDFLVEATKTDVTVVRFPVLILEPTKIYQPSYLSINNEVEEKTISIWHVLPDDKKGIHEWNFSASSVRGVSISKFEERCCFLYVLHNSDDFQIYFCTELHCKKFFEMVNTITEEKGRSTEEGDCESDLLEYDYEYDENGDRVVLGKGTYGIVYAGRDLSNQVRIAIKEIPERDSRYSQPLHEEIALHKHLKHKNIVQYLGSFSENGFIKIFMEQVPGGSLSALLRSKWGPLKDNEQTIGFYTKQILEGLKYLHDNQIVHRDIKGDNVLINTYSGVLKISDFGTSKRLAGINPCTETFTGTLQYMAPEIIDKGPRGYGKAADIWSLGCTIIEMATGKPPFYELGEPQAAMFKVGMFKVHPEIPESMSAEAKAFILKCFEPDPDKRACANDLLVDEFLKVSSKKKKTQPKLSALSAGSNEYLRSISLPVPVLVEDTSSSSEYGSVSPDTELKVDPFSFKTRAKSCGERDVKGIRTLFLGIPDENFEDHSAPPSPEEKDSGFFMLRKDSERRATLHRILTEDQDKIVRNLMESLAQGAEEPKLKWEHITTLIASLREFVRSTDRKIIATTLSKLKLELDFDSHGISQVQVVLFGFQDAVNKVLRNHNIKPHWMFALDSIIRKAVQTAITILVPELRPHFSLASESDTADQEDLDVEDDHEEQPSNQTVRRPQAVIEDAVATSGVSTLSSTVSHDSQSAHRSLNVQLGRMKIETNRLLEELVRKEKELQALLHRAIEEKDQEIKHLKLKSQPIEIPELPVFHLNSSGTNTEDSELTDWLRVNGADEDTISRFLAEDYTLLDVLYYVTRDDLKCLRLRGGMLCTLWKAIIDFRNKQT

MAPK11 (human) = MAPK11 (human) (UniProt Q15759)
MAPK3 (human) = MAPK3 (human) (UniProt P27361)
MAPK9 (human) = MAPK9 (human) (UniProt P45984)
MARK2 (human) = MARK2 (human) (UniProt Q7KZI7)
NEK5 (human) = NEK5 (human) (UniProt Q6P3R8)
PAK2 (human) = PAK2 (human) (UniProt Q13177)
PIP5K1A (human) = PIP5K1A (human) (UniProt Q99755)
PRKD2 (human) = PRKD2 (human) (UniProt Q9BZL6)
Sequence of PRKD2 (human) (Q9BZL6 whole entry, looked up): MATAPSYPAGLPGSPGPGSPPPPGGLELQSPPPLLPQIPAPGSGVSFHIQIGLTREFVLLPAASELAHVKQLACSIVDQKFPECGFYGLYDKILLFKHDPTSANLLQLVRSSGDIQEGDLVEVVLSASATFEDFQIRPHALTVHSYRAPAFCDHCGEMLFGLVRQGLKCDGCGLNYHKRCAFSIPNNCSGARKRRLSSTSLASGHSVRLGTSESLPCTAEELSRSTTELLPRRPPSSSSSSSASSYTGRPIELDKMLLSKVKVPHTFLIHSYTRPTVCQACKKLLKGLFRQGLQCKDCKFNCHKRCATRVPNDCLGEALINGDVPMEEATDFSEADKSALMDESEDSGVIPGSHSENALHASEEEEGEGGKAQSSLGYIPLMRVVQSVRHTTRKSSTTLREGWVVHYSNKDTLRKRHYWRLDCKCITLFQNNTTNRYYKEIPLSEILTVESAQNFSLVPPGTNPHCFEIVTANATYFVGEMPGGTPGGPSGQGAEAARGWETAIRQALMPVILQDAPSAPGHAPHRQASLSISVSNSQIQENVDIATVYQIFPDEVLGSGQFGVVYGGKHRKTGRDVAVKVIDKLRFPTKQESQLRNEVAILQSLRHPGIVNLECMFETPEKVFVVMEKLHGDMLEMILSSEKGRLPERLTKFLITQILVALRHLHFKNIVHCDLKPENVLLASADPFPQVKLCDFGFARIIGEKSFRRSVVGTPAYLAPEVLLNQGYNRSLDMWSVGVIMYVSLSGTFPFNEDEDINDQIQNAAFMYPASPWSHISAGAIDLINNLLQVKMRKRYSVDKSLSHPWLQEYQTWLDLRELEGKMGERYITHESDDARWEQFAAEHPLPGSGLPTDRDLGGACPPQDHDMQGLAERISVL

PRKX (human) = PRKX (human) (UniProt P51817)
ROCK2 (human) = ROCK2 (human) (UniProt O75116)
RPS6KA5 KD1 (human) = RPS6KA5 KD1 (human) (UniProt O75582)
SGK110 (human) = SGK110 (human) (UniProt P0C264)
SIK1 (human) = SIK1 (human) (UniProt P57059)
SRPK2 (human) = SRPK2 (human) (UniProt P78362)
STK17B (human) = STK17B (human) (UniProt O94768)
STK36 (human) = STK36 (human) (UniProt Q9NRP7)
Sequence of STK36 (human) (Q9NRP7 whole entry, looked up): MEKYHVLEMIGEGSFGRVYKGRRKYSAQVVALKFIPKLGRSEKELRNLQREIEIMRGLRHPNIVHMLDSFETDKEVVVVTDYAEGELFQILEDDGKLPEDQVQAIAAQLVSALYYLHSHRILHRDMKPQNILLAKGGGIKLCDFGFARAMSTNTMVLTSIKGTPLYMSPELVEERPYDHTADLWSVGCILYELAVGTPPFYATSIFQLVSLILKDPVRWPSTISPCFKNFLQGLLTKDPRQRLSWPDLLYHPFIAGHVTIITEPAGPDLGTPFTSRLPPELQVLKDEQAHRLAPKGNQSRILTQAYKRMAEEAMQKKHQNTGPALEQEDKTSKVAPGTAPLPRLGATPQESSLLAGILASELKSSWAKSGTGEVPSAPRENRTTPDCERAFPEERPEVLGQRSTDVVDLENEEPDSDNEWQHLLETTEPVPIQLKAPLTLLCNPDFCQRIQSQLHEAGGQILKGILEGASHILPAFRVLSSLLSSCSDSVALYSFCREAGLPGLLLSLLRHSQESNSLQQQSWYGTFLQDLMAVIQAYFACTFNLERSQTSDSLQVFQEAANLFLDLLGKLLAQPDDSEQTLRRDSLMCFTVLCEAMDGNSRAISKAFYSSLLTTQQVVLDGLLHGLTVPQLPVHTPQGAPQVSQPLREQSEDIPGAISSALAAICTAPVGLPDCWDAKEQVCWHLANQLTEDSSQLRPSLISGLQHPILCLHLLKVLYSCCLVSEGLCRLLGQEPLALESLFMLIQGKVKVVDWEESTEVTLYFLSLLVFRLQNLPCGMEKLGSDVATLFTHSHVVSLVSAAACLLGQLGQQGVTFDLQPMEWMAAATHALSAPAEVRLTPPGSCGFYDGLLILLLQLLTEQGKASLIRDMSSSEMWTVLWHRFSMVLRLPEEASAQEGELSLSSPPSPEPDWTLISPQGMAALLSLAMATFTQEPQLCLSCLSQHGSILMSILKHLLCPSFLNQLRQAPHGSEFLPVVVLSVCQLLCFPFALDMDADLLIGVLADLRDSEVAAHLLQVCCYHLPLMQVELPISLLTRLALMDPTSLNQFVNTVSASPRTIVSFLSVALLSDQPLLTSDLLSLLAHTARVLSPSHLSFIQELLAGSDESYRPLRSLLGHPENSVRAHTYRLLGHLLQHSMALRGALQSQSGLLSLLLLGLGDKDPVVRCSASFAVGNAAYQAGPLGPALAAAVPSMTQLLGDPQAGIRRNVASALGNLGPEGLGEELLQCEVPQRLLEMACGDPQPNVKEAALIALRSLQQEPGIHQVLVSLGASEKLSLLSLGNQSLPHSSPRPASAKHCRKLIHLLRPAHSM

SYK (human) = SYK (human) (UniProt P43405)
TESK1 (human) = TESK1 (human) (UniProt Q15569)
[1] = molecular target: TYK2 JH2 pseudokinase (human) (UniProt P29597)
YES1 (human) = YES1 (human) (UniProt P07947)

Sequence of CDK3 (human) (Q00526 whole entry, looked up): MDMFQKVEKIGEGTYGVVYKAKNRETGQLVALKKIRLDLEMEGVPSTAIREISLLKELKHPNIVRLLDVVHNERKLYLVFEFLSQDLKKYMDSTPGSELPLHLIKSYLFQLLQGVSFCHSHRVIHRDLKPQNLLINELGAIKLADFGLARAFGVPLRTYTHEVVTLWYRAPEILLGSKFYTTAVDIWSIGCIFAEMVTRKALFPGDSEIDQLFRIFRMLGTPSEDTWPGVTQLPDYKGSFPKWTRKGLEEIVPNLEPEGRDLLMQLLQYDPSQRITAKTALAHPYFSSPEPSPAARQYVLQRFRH

`Cn1c(=O)n(-c2ccc(C(C)(C)C#N)cc2)c2c3cc(-c4cnc5ccccc5c4)ccc3ncc21` gave a kinase still bound, per cent of control (ACVR1B (human)) of 100%, a kinase still bound, per cent of control (ACVR2B (human)) of 100% and a kinase still bound, per cent of control (ALK (human)) of 100%. For the same compound, the kinase still bound, per cent of control (CAMKK2 (human)) was 100%, the kinase still bound, per cent of control (CDK19 (human)) was 100% and the kinase still bound, per cent of control (CDK3 (human)) was 100%. It also gave a kinase still bound, per cent of control (CHEK2 (human)) of 100%, a kinase still bound, per cent of control (CHUK (human)) of 100% and a kinase still bound, per cent of control (CLK2 (human)) of 100%. For the same compound, the kinase still bound, per cent of control (EPHA2 (human)) was 100%, the kinase still bound, per cent of control (EPHA4 (human)) was 100% and the kinase still bound, per cent of control (FYN (human)) was 100%. It also gave a kinase still bound, per cent of control (GSK3A (human)) of 100%, a kinase still bound, per cent of control (IKBKE (human)) of 100% and a kinase still bound, per cent of control (KDR (human)) of 100%. It also gave a kinase still bound, per cent of control (LTK (human)) of 33%, a kinase still bound, per cent of control (MAP2K1 (human)) of 100% and a kinase still bound, per cent of control (MAP2K3 (human)) of 100%. The kinase still bound, per cent of control (MAP3K3 (human)) was 100%, the kinase still bound, per cent of control (MAP3K5 (human)) was 100% and the kinase still bound, per cent of control (MAPK11 (human)) was 100%. The kinase still bound, per cent of control (MAPK3 (human)) was 100%, the kinase still bound, per cent of control (MAPK9 (human)) was 100% and the kinase still bound, per cent of control (MARK2 (human)) was 100%. It also gave a kinase still bound, per cent of control (NEK5 (human)) of 100%, a kinase still bound, per cent of control (PAK2 (human)) of 100% and a kinase still bound, per cent of control (PIP5K1A (human)) of 100%. The kinase still bound, per cent of control (PRKD2 (human)) was 100%, the kinase still bound, per cent of control (PRKX (human)) was 100% and the kinase still bound, per cent of control (ROCK2 (human)) was 100%. The kinase still bound, per cent of control (RPS6KA5 KD1 (human)) was 100%, the kinase still bound, per cent of control (SGK110 (human)) was 100% and the kinase still bound, per cent of control (SIK1 (human)) was 100%. For the same compound, the kinase still bound, per cent of control (SRPK2 (human)) was 100%, the kinase still bound, per cent of control (STK17B (human)) was 100% and the kinase still bound, per cent of control (STK36 (human)) was 100%. The kinase still bound, per cent of control (SYK (human)) was 100%, the kinase still bound, per cent of control (TESK1 (human)) was 100% and the kinase still bound, per cent of control [1] was 100%. The kinase still bound, per cent of control (YES1 (human)) was 100%.
